This note sets out measurements from publication PMC9989471, “The Key Roles of Mycobacterium tuberculosis FadD23 C-terminal Domain in Catalytic Mechanisms” (Frontiers in Microbiology, 2023).

A word on the Kd: it is the equilibrium constant for the complex coming apart. High values mean weaker binding, low ones tighter binding. What is called Km is the concentration of substrate that gives half-maximal velocity. What is called Vmax is the top rate of the reaction or transport when substrate is in excess. As a reminder, the kcat is the number of substrate molecules converted per active site and unit of time at saturation. A word on the kcat/Km: it is the turnover number divided by the Michaelis constant.

The target in data set [1] is T1, FadD23 (Mycobacterium tuberculosis, UniProt P9WQ47).
T1 construct: full-length
T1 sequence (P9WQ47 whole entry): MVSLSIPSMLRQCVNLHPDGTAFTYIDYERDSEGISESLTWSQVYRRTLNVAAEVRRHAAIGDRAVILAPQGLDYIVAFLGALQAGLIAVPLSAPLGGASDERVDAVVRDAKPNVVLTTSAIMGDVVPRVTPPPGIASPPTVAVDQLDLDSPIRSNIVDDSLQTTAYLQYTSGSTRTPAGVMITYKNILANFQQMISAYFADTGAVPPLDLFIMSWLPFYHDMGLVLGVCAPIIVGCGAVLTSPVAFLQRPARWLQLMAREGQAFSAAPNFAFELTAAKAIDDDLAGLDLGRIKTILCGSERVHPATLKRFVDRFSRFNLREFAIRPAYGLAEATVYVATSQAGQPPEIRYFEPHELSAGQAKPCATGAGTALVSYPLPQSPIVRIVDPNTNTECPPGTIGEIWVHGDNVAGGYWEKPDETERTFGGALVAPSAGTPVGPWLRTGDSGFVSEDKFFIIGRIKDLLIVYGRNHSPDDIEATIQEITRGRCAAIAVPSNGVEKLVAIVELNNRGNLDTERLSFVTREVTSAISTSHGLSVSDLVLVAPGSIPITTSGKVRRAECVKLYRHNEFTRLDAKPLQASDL
Description: crystal structure ([…] Å), formed from ATP and palmitic acid. The format is binding.

For data set [2], the target named is T1, FadD23. Description: crystal structure ([…] Å), with palmitic acid bound. The format is binding.
Data set [3] deals with T1, FadD23. Put plainly: SPR. Format: binding.
The target of data set [4] is T1, FadD23. Put plainly: SPR; also crystal structure with AMP-PNP, MS, DSF and hydroxamate-MesG assay. Format: binding. Background: Surface plasmon resonance follows binding to a sensor surface in real time, without labels.
The subject of the next data set is CCCCCCCCCCCC(=O)O. Description: purified protein. The following applies: ATP, Mg2+.

Regarding `CCCCCCCCCCCCCCCC(=O)OP(=O)(O)OC[C@H]1O[C@@H](n2cnc3c(N)ncnc32)[C@H](O)[C@@H]1O` [AMP-C16, hexadecanoyl adenylate], the “crystal structure (2.68 Å), formed from ATP and palmitic acid” value on FadD23 [1] was “FadD23 catalyzed the hydrolysis of ATP and connected AMP with palmitic acid to generate a molecule of AMP-C16”.

On to `Nc1ncnc2c1ncn2[C@@H]1O[C@H](CO[P@](=O)(O)O[P@](=O)(O)NP(=O)(O)O)[C@@H](O)[C@H]1O` [AMP-PNP], for which the “crystal structure (2.25 Å), with palmitic acid bound” value at FadD23 [2] is on record as “In the AMP-PNP-FadD23 complex, the O27 of AMP-PNP interacted with NE of Arg460 through hydrogen bond”.

In turn, `Nc1ncnc2c1ncn2[C@@H]1O[C@H](COP(=O)(O)OP(=O)(O)OP(=O)(O)O)[C@@H](O)[C@H]1O` [ATP] yielded a Kd at FadD23 [3] of around 1 µM.

Compound `CCCCCCCCCCCCCCCC(=O)O` [palmitic acid] yielded a Kd at FadD23 [4] of 34.5 µM.

As to “FadD23 (Mycobacterium tuberculosis H37Rv)”, in the data set with CCCCCCCCCCCC(=O)O, the Km was 33.56 ± 5.40 µM, the Vmax was found to be 0.00108 µmol/min, the kcat was 0.00239 s⁻¹ and the kcat/Km stood at 71.2 M⁻¹ s⁻¹.
